The target of one assay is T1, human PAC1 receptor (Homo sapiens, UniProt P41586).
T1 construct: SHSY-5Y (human neuroblastoma cell line) and RG-2 (rat glioma cell line) cells endogenously express human and rat PAC1 receptors, respectively; endogenous in cells; host or cells: SHSY-5Y human neuroblastoma cells
T1 sequence (P41586 21-468): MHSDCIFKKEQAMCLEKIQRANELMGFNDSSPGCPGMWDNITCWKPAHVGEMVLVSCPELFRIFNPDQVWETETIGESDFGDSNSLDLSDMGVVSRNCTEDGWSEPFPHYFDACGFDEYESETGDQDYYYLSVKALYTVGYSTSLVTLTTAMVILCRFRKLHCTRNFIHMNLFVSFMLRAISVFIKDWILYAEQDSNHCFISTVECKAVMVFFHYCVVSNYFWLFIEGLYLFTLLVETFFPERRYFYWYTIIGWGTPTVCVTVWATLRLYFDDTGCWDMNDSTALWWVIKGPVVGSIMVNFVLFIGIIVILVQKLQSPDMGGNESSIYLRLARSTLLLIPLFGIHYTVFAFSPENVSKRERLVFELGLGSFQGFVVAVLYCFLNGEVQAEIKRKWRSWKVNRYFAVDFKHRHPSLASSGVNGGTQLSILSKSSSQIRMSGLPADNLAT
Put plainly: LANCE Ultra cAMP accumulation antagonist assay in SHSY-5Y cells.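 Note: inhibition of cAMP accumulation evoked by PAC1 agonist at its EC80 in SHSY-5Y cells endogenously expressing receptor, 30 min preincubation then 15 min agonist, TR-FRET readout.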 In kind it is cell-based. On the technique in general: Time-resolved FRET reads energy transfer from a long-lived donor to a nearby acceptor.

The next assay addresses T2, rat PAC1 receptor (Rattus norvegicus, UniProt P32215).
T2 construct: SHSY-5Y (human neuroblastoma cell line) and RG-2 (rat glioma cell line) cells endogenously express human and rat PAC1 receptors, respectively; endogenous in cells; host or cells: RG-2 rat glioma cells
T2 sequence (P32215 20-523): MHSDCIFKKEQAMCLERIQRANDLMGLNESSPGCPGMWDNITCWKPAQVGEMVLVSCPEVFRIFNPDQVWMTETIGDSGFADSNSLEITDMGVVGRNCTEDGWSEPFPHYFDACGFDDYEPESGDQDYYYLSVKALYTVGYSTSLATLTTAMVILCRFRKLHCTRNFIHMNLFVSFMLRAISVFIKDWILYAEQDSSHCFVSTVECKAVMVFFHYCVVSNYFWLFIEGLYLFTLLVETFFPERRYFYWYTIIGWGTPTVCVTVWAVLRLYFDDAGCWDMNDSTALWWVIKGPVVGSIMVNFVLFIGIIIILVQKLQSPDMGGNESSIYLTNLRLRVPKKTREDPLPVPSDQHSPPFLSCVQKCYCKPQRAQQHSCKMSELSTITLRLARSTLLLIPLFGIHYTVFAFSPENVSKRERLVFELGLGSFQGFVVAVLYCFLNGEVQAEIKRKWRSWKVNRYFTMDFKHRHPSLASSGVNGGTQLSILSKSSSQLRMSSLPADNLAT
Briefly: LANCE Ultra cAMP accumulation antagonist assay in RG-2 cells.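 Note: RG-2 rat glioma cells endogenously expressing PAC1, test peptide preincubated 30 min, then PAC1 agonist added at its EC80 for 15 min, cAMP accumulation read by LANCE Ultra.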 In kind it is cell-based.

Where a SMILES comes first, the peptide text is derived from it. Bridges are numbered along the chain shown (N, C = ends). Where no end group is shown, it is not given here. A value given as a limit tells only on which side of the number the result lay.

Procedure for human PAC1 receptor: (§1) In order to determine the potency of peptide antagonists at the PAC1 receptor, functional cAMP accumulation assays using LANCE Ultra cAMP assay kit to measure the agonist and antagonist activity of PAC1 peptides were used. SHSY-5Y (human neuroblastoma cell line) and RG-2 (rat glioma cell line) cells endogenously express human and rat PAC1 receptors, respectively. Agonist activity of PAC1 peptides was tested by incubating with SHSY-5Y at 2,000 cells per well or RG-2 at 5,000 cells per well for 15 minutes at room temperature. PAC1 receptor agonist PACAP38 or maxadilan was included as a positive control. The reaction was stopped by adding detection mixture, europium (Eu) chelate-labeled cAMP tracer and cAMP-specific monoclonal antibodies labeled with the ULight™ dye, to all wells followed by a 60-minute incubation at room temperature. The assay plates were then read on an EnVision instrument at an emission wavelength of 665 and 615 nm and data were analyzed using Genedata Screener or GraphPad Prism software. A similar procedure was used in the antagonist assays by using a fixed concentration of PAC1 agonist. The concentrations of agonists were chosen based on their ECK) values at PAC1 receptors in SHSY-5Y or RG-2 cells. SHSY-5Y or RG-2 cells were added into 96-well half-area white plates. Serially diluted PAC1 peptides at ten concentrations were added and incubated for 30 minutes at room temperature. PAC1 agonist at EC80 concentration was then added and further incubated for 15 minutes at room temperature. The reaction was stopped by adding detection mixture to all wells followed by a 60-minute incubation at room temperature. The assay plates were read and analyzed the same way as that of agonist assay. Cells, agonists, and PAC1 peptides were prepared in freshly made assay buffer (F-12, 0.5 mM IBMX, 0.1 or 0.4% BSA (pH 7.4)). Detection mixture was made by mixing a 1/50 dilution of the Eu-cAMP tracer stock solution in cAMP Detection Buffer and a 1/150 dilution of the ULight-anti-cAMP stock solution in cAMP Detection Buffer. Europium (Eu) chelate-labeled cAMP tracer, cAMP-specific monoclonal antibodies labeled with the ULight™ dye, BSA, and detection buffer were provided in LANCE Ultra cAMP Kit from PerkinElmer
Procedure for rat PAC1 receptor: as §1

As for “CDATCQFRKAIDDCYYRSWHSNVPGSVFKACMKQRKKRWLAG-NH2 (disulfide 1-5, 14-31) [compound 69]”, the IC50 on human PAC1 receptor and at rat PAC1 receptor was 0.01 to 1 nM each time.
On to “CDATCQFRKAIDDCFYQAWHSNVPGSVWKACMKQKKKEFKAG-NH2 (disulfide 1-5, 14-31) [compound 139]”, for which the IC50 at human PAC1 receptor and against rat PAC1 receptor was 0.01 to 1 nM throughout.
For “CDATCQFRKAIDDCQKQAHHSNVPGSVFKACMKFRFNVWKAG-NH2 (disulfide 1-5, 14-31) [compound 127]”, the IC50 against human PAC1 receptor and on rat PAC1 receptor was 0.01 to 1 nM throughout.
On to “CDATCQFRKAIDDCYKQAHHSNVPGSVFKACMKQKKKEFKAGH (disulfide 1-5, 14-31) [compound 47]”, for which the IC50 against human PAC1 receptor and against rat PAC1 receptor was 0.01 to 1 nM each time.
For the molecule “CDATCQFRKAIDDCYYRSWHANVPGSVFKACMKQKKKEWKAG-NH2 (disulfide 1-5, 14-31) [compound 60]”, the IC50 on human PAC1 receptor and against rat PAC1 receptor was 0.01 to 1 nM each time.
As to “CDATCQFRKAIDDCDKQAHHSNVPGSVFKACMKQKKKEFQAG-NH2 (disulfide 1-5, 14-31) [compound 169]”, the IC50 against human PAC1 receptor and at rat PAC1 receptor was 0.01 to 1 nM in each case.
In the case of `CC[C@H](C)[C@H](NC(=O)[C@H](C)NC(=O)[C@H](CCCCN)NC(=O)[C@H](CCCNC(=N)N)NC(=O)[C@H](Cc1ccccc1)NC(=O)[C@H](CCC(N)=O)NC(=O)[C@@H]1CSSC[C@H](N)C(=O)N[C@@H](CC(=O)O)C(=O)N[C@@H](C)C(=O)N[C@@H]([C@@H](C)O)C(=O)N1)C(=O)N[C@@H](CC(=O)O)C(=O)N[C@@H](CC(=O)O)C(=O)N[C@H]1CSSC[C@@H](C(=O)N[C@@H](CCSC)C(=O)N[C@@H](CCCCN)C(=O)N[C@@H](CCC(N)=O)C(=O)N[C@@H](CCCCN)C(=O)N[C@@H](CCCCN)C(=O)N[C@@H](CCCCN)C(=O)N[C@@H](CCC(=O)O)C(=O)N[C@@H](Cc2c[nH]c3ccccc23)C(=O)N[C@@H](CCCCN)C(=O)N[C@@H](C)C(=O)NCC(=O)N[C@@H](Cc2c[nH]cn2)C(=O)O)NC(=O)[C@H](C)NC(=O)[C@H](CCCCN)NC(=O)[C@H](Cc2ccccc2)NC(=O)[C@H](C(C)C)NC(=O)[C@H](CO)NC(=O)[C@H](CO)NC(=O)[C@H](Cc2c[nH]cn2)NC(=O)[C@H](Cc2c[nH]cn2)NC(=O)[C@H](C)NC(=O)[C@H](CCC(N)=O)NC(=O)[C@H](CCCNC(=N)N)NC(=O)[C@H](C)NC1=O` [compound 28] (H-CDATCQFRKAIDDCARQAHHSSVFKACMKQKKKEWKAGH-OH; disulfide 1-5, 14-27), the IC50 on human PAC1 receptor and on rat PAC1 receptor was 0.01 to 1 nM throughout.
Take “CDATCQFRKAIDDCYYRSHHSNVPGSVFKACMKQKKKEFKAG-NH2 (disulfide 1-5, 14-31) [compound 45]”: the IC50 against human PAC1 receptor and on rat PAC1 receptor was 0.01 to 1 nM throughout.
For “CDATCQFRKAIDDCQKQAHHSNVPNSVFKECMKQKKKEFKAGK (disulfide 1-5, 14-31) [compound 365]”, on human PAC1 receptor, the IC50 lay in the range of 1 to 100 nM.
The same measure, in the same setting: the figure for “CDATCQFRKAIDDCQKQAHHSNVPGNSFKECMKQKKKEFKAGK (disulfide 1-5, 14-31) [compound 363]” is 1 to 100 nM; for “CDATCQFRKAIDDCQKQAHHSNVSVFKECMKQKKKEFKAGK (disulfide 1-5, 14-29) [compound 397]” it is 1 to 100 nM.
Regarding “CDATCQFRKAIDDCQKQAHHSNVPGNSVKECMKQKKKEFKAGK (disulfide 1-5, 14-31) [compound 362]”, the IC50 at human PAC1 receptor is > 100 nM.
Still for that read-out and setting: the figure for `CC[C@H](C)[C@H](NC(=O)[C@H](C)NC(=O)[C@H](CCCCN)NC(=O)[C@H](CCCNC(=N)N)NC(=O)[C@H](Cc1ccccc1)NC(=O)[C@H](CCC(N)=O)NC(=O)[C@@H]1CSSC[C@H](N)C(=O)N[C@@H](CC(=O)O)C(=O)N[C@@H](C)C(=O)N[C@@H]([C@@H](C)O)C(=O)N1)C(=O)N[C@@H](CC(=O)O)C(=O)N[C@@H](CC(=O)O)C(=O)N[C@H]1CSSC[C@@H](C(=O)N[C@@H](CCSC)C(=O)N[C@@H](CCCCN)C(=O)N[C@@H](CCC(N)=O)C(=O)N[C@@H](CCCCN)C(=O)N[C@@H](CCCCN)C(=O)N[C@@H](CCCCN)C(=O)N[C@@H](CCC(=O)O)C(=O)N[C@@H](Cc2ccccc2)C(=O)N[C@@H](CCCCN)C(=O)N[C@@H](C)C(=O)NCC(=O)N[C@@H](CCCCN)C(=O)O)NC(=O)[C@H](CCC(=O)O)NC(=O)[C@H](CCCCN)NC(=O)[C@H](Cc2ccccc2)NC(=O)[C@H](C(C)C)NC(=O)[C@H](CO)NC(=O)[C@H](CC(N)=O)NC(=O)[C@H](CO)NC(=O)[C@H](Cc2c[nH]cn2)NC(=O)[C@H](Cc2c[nH]cn2)NC(=O)[C@H](C)NC(=O)[C@H](CCC(N)=O)NC(=O)[C@H](CCCCN)NC(=O)[C@H](CCC(N)=O)NC1=O` [compound 396] (H-CDATCQFRKAIDDCQKQAHHSNSVFKECMKQKKKEFKAGK-OH; disulfide 1-5, 14-28) is 1 to 100 nM; for `CC[C@H](C)[C@H](NC(=O)[C@H](C)NC(=O)[C@H](CCCCN)NC(=O)[C@H](CCCNC(=N)N)NC(=O)[C@H](Cc1ccccc1)NC(=O)[C@H](CCC(N)=O)NC(=O)[C@@H]1CSSC[C@H](N)C(=O)N[C@@H](CC(=O)O)C(=O)N[C@@H](C)C(=O)N[C@@H]([C@@H](C)O)C(=O)N1)C(=O)N[C@@H](CC(=O)O)C(=O)N[C@@H](CC(=O)O)C(=O)N[C@H]1CSSC[C@@H](C(=O)N[C@@H](CCSC)C(=O)N[C@@H](CCCCN)C(=O)N[C@@H](CCC(N)=O)C(=O)N[C@@H](CCCCN)C(N)=O)NC(=O)[C@H](CCC(=O)O)NC(=O)[C@H](CCCCN)NC(=O)[C@H](Cc2ccccc2)NC(=O)[C@H](C(C)C)NC(=O)[C@H](CO)NC(=O)[C@H](CC(N)=O)NC(=O)CNC(=O)[C@@H]2CCCN2C(=O)[C@H](C(C)C)NC(=O)[C@H](CC(N)=O)NC(=O)[C@H](CO)NC(=O)[C@H](Cc2c[nH]cn2)NC(=O)[C@H](Cc2c[nH]cn2)NC(=O)[C@H](C)NC(=O)[C@H](CCC(N)=O)NC(=O)[C@H](CCCCN)NC(=O)[C@H](CCC(N)=O)NC1=O` [compound 413] it is 1 to 100 nM.
Consider “CDATCQFRKAIDDCKQQAHHSNVPGNSVFEKCMKQKKKEFKAGK (disulfide 1-5, 14-32) [compound 346]”, for which the IC50 on human PAC1 receptor is > 100 nM.
On human PAC1 receptor, “CDATCQFRKAIDDCQKQAHHSNVPGSVFKECMKQKKKEFKAGK (disulfide 1-5, 14-31) [compound 364]” gave an IC50 of 1 to 100 nM.
On to `CC[C@H](C)[C@@H]1NC(=O)[C@H](C)NC(=O)[C@H](CCCCN)NC(=O)[C@H](CCCNC(=N)N)NC(=O)[C@H](Cc2ccccc2)NC(=O)[C@H](CCC(N)=O)NC(=O)[C@H](CO)NC(=O)[C@H]([C@@H](C)O)NC(=O)[C@H](C)NC(=O)[C@H](CC(=O)O)NC(=O)[C@@H](N)CSSC[C@@H](C(=O)N[C@@H](Cc2c[nH]cn2)C(=O)O)NC(=O)[C@H](C)NC(=O)[C@H](CCCCN)NC(=O)[C@H](Cc2c[nH]c3ccccc23)NC(=O)[C@H](CCC(=O)O)NC(=O)[C@H](CCCCN)NC(=O)[C@H](CCCCN)NC(=O)[C@H](CCCCN)NC(=O)[C@H](CCC(N)=O)NC(=O)[C@H](CCCCN)NC(=O)[C@H](CCSC)NC(=O)[C@H](CO)NC(=O)[C@H](C)NC(=O)[C@H](CCCCN)NC(=O)[C@H](Cc2ccccc2)NC(=O)[C@H](C)NC(=O)[C@H](CO)NC(=O)[C@H](CC(=O)O)NC(=O)[C@H](CC(=O)O)NC1=O` [compound 442] (H-CDATSQFRKAIDDSAFKASMKQKKKEWKACH-OH; disulfide 1-30), for which the IC50 against rat PAC1 receptor was > 100 nM.
On the same count and under the same terms, for `CC[C@H](C)[C@H](NC(=O)[C@H](C)NC(=O)[C@H](CCCCN)NC(=O)[C@H](CCCNC(=N)N)NC(=O)[C@H](Cc1ccccc1)NC(=O)[C@H](CCC(N)=O)NC(=O)[C@@H]1CSSC[C@H](N)C(=O)N[C@@H](CC(=O)O)C(=O)N[C@@H](C)C(=O)N[C@@H]([C@@H](C)O)C(=O)N1)C(=O)N[C@@H](CC(=O)O)C(=O)N[C@@H](CC(=O)O)C(=O)N[C@H]1CSSC[C@@H](C(=O)N[C@@H](CCSC)C(=O)N[C@@H](CCCCN)C(=O)N[C@@H](CCC(N)=O)C(=O)N[C@@H](CCCCN)C(=O)N[C@@H](CCCCN)C(=O)N[C@@H](CCCCN)C(=O)N[C@@H](CCC(=O)O)C(=O)N[C@@H](Cc2c[nH]c3ccccc23)C(=O)N[C@@H](CCCCN)C(=O)N[C@@H](C)C(=O)NCC(N)=O)NC(=O)[C@H](CO)NC(=O)[C@H](CCCCN)NC(=O)[C@H](Cc2ccccc2)NC(=O)[C@H](C(C)C)NC(=O)[C@H](CO)NC(=O)[C@H](CO)NC(=O)[C@H](Cc2c[nH]cn2)NC(=O)[C@H](Cc2ccc(O)cc2)NC(=O)[C@H](C)NC(=O)[C@H](CCC(N)=O)NC(=O)[C@H](CCCNC(=N)N)NC(=O)[C@H](C)NC1=O` [compound 430] (H-CDATCQFRKAIDDCARQAYHSSVFKSCMKQKKKEWKAG-NH2; disulfide 1-5, 14-27) the value was < 0.01 nM.
With “CDATCQFRKAIDDCQKQAHHSNVGNSVFKECMKQKKKEFKAGK (disulfide 1-5, 14-31) [compound 398]”, the IC50 at human PAC1 receptor is 1 to 100 nM.

Broadly, the IC50 is the concentration needed to halve the response being measured. A high value points to weaker potency.
